“Also recorded” adds a separate entry of the source.
How the values were obtained:
[1] = system: human foreskin fibroblasts (HFF); assay type: cell-based; settings: compound 5 μM alone or in the presence of TRAIL (100 ng/mL), Figure 5
[2] = system: PPC-1 prostate cancer cells; settings: for LD50 values for TRAIL in the presence of the compound: compound 5 μM for 4 h, then TRAIL 20 h; for LD50 values for TRAIL in the presence of the compound / synergy with TRAIL to reduce the number of viable cells: PPC-1 cells; for synergy with TRAIL to reduce the number of viable cells: compound 5 μM, Figure 4
[3] = system: MDA-MB-231 cells; assay: Synergy with TNF to induce cell death in MDA-MB-231 cells; assay type: cell-based; settings: compound 5 μM, various concentrations of TNF, Figure S2
[4] = Cellular assay; assay type: cell-based; settings: Figure S1

Compound | toxicity in normal cells [1] | LD50 values for TRAIL in the presence of the compound [2] | synergy with TRAIL to reduce the number of viable cells [2] | synergy with TNF to induce cell death [3] | toxicity as a single agent ([2]; single agent, Figures 4, 5 and S1) | activity in a cellular assay [4]
CN[C@@H](C)C(=O)N[C@H](C(=O)N1CCC[C@H]1C(=O)Nc1cccc2ccccc12)C(C)C [Compound 2b] | No toxicity was observed | 0.073 to 0.089 nM | act synergistically with TRAIL | acts synergistically | – | –
CN[C@@H](C)C(=O)N[C@H](C(=O)N[C@@H](C)C(=O)Nc1cccc2ccccc12)C(C)C [Compound 8q] | No toxicity was observed | 0.073 to 0.089 nM | sensitized TRAIL-resistant prostate cancer cells to apoptotic cell death; also recorded: act synergistically with TRAIL | – | no toxicity | –
CC(C)[C@H](NC(=O)[C@H](C)N)C(=O)N[C@@H](C)C(=O)Nc1cccc2ccccc12 [Compound 8t] | – | – | – | – | – | did not show any activity
CN[C@@H](C)C(=O)N[C@H](C(=O)N1CCC[C@H]1C(=O)NNc1ccccc1)C(C)C [Compound 2a] | – | – | act synergistically with TRAIL | – | – | –
CN[C@@H](C)C(=O)N[C@H](C(=O)N1CCC[C@H]1C(=O)N[C@@H]1CCCc2ccccc21)C(C)C [Compound 2c] | – | 0.073 to 0.089 nM | act synergistically with TRAIL | – | – | –

Source: PMC3772719 (Bioorganic & medicinal chemistry letters, 2013)
